Source: US11325917B2, “Thienopyrazine carboxamides as ubiquitin-specific protease inhibitors” (Valo Health, Inc., priority 2016, dated 2022)

Experiments:
USP28 = USP28 (Homo sapiens (Human), UniProt Q96RU2); assay: Ubiquitin-Rhodamine 110 Assay for USP28 Activity; type: biochemical; settings: Ub-Rh110 substrate 25 nM
Description: Each assay was performed in a final volume of 20 μL in assay buffer containing 20 mM Tris-HCl (pH 8.0, (1M Tris-HCl, pH 8.0 solution; Corning 46-031-CM)), 2 mM CaCl2 (1M Calcium Chloride solution; Sigma #21114) 2 mM BME (2-Mercaptoethanol; Sigma 63689-25ML-F), 0.01% Prionex ([…] filtered, Sigma #G-0411), and 0.01% Triton X-100. Stock compound solutions were stored at −20° C. as 10 mM in DMSO. Up to 1 month prior to the assay, 2 mM test compounds were pre-dispensed into assay plates (Black, low volume; Corning #3820) and frozen at −20° C. Prestamped assay plates were allowed to come to room temperature on the day of the assay. […] Plates were incubated stacked for 90 minutes at room temperature before fluorescence was read on the Envision (Excitation at 485 nm and Emission at 535 nm; Perkin Elmer) or on the PheraSTAR (Excitation at 485 nm and Emission at 535 nm; BMG Labtech).
For follow-up studies, Each assay was performed in a final volume of 15 μL in assay buffer containing 20 mM Tris-HCl (pH 8.0, (1M Tris-HCl, pH 8.0 solution; Corning 46-031-CM)), 3 mM BME (2-Mercaptoethanol; Sigma 63689-25ML-F), 0.03% BGG ([…] filtered, Sigma, G7516-25G), and 0.01% Triton X-100 (Sigma, T9284-10L). […] Fluorescence was read on the Envision (Excitation at 485 nm and Emission at 535 nm; Perkin Elmer) or on the PheraSTAR (Excitation at 485 nm and Emission at 535 nm; BMG Labtech). […]

USP25 = USP25 (Homo sapiens (Human), UniProt Q9UHP3); assay: Ubiquitin-Rhodamine 110 Assay for USP25 Activity; type: biochemical; settings: Ub-Rh110 substrate 25 nM
Chain of USP25 (Q9UHP3 whole entry): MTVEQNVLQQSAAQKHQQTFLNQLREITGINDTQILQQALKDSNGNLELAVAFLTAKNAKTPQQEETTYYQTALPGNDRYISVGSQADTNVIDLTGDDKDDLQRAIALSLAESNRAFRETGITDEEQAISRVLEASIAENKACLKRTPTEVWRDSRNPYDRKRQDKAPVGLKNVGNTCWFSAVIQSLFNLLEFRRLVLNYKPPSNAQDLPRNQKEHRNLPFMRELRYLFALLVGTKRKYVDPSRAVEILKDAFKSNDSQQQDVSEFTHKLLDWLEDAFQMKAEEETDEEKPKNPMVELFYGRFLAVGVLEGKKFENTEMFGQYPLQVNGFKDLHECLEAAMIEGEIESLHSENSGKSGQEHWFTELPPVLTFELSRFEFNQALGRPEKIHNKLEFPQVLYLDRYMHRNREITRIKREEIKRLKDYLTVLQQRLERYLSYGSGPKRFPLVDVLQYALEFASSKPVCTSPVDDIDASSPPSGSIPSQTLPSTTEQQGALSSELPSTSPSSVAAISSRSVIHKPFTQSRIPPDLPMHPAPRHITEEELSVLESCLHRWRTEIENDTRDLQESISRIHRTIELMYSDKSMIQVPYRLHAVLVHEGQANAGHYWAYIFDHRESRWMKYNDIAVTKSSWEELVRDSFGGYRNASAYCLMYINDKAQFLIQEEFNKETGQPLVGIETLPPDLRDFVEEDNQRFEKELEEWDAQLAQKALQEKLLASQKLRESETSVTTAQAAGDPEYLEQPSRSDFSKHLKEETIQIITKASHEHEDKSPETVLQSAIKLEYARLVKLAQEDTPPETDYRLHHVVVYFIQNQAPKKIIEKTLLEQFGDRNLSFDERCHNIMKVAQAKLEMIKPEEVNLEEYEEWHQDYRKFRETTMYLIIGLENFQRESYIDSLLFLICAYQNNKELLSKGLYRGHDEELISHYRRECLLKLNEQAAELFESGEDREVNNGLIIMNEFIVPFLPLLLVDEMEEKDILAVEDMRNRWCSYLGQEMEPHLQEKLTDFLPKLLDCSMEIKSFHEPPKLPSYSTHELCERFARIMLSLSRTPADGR
Description: The assay was performed in a final volume of 9 μL in assay buffer containing 20 mM Tris-HCl (pH 8.0, (1M Tris-HCl, pH 8.0 solution; Corning 46-031-CM)), 3 mM BME (2-Mercaptoethanol; Sigma 63689-25ML-F), 0.03% BGG (0.22 μM filtered, Sigma, G7516-25G), and 0.01% Triton X-100 (Sigma, T9284-10L). Nanoliter quantities of 10-point, 3-fold serial dilution in DMSO was pre-dispensed into 1536 assay plates (Corning, #3724BC) for a final test concentration of 25 μM to 1.3 nM, top to lowest dose, respectively. Enzyme USP25, construct USP25-His6, (Boston Biochem E-546). […] Fluorescence was read on the Envision (Excitation at 485 nm and Emission at 535 nm; Perkin Elmer) or on the PheraSTAR (Excitation at 485 nm and Emission at 535 nm; BMG Labtech).
For both the USP28 and USP25 assay formats Data were reported as percent inhibition compared with control wells based on the following equation: % inh=1−((FLU−AveLow)/(AveHigh−AveLow)) where FLU=measured Fluorescence, AveLow=average Fluorescence of no enzyme control (n=16), and AveHigh=average Fluorescence of DMSO control (n=16). IC50 values were determined by curve fitting of the standard 4 parameter logistic fitting algorithm included in the Activity Base software package: IDBS XE Designer Model205. […]

Chain of USP28 (Q96RU2 whole entry): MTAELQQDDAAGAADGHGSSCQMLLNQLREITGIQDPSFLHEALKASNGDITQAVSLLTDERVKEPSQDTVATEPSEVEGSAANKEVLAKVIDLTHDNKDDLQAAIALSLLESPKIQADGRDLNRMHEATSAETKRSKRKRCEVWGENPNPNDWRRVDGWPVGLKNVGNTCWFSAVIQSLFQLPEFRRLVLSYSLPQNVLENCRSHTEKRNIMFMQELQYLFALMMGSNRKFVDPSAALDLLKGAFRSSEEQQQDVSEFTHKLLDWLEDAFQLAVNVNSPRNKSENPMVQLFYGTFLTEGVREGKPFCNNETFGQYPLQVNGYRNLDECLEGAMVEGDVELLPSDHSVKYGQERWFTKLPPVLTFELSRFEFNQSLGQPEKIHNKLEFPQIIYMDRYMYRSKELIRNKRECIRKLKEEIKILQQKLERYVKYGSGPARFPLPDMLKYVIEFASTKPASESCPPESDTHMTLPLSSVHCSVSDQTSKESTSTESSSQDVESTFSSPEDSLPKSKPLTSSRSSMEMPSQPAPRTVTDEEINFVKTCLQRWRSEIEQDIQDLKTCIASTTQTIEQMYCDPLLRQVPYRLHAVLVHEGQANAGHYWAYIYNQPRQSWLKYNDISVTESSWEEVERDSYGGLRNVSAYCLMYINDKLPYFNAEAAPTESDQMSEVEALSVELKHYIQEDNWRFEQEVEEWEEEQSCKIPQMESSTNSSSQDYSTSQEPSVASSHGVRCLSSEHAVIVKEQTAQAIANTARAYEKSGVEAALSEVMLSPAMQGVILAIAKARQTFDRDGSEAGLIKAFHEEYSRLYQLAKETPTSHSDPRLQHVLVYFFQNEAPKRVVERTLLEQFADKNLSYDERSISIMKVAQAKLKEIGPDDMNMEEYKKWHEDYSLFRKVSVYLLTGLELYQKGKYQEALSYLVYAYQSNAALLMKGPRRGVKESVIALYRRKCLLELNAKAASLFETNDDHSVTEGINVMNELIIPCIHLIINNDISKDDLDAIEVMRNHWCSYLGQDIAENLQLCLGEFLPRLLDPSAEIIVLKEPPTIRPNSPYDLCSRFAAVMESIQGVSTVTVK

Cc1cnc2c(N)c(C(=O)NCCc3cc(F)c(N4CC5CNCC(C4)O5)cc3F)sc2n1 [Compound I-20]
IC50 (USP28): < 0.2 µM | IC50 (USP25): < 0.2 µM
